Measurements taken from patent publication US7094760B2, “Peptides for treatment of inflammation and shock” (Salpep Biotechnology, Inc., priority 1996, dated 2006).
“Also recorded” adds a separate entry of the source.

Legend:
[1] = test system: ovalbumin-sensitized Sprague-Dawley rats, submandibular glands removed; test: anaphylactic hypotension and heart function (VPSP, dP/dt), Example 10; type: in vivo, rat; conditions: for integrated (average) decrease in VPSP over the 30 min: 10 min prior to antigen, saline control 46.2±6.5
Experimental: Methods: Sprague-Dawley rats (200–300 g) were sensitized with 1 mg ovalbumin and 50 ng Pertussin toxin (Sigma) (24) one month prior to experimentation. The submandibular glands were removed bilaterally 7 days prior to the experiment by previously described procedures (23). Rats were anesthetized with sodium pentobarbital (65 mg/kg) and a tracheal tube (PE240 polyethylene tubing) was inserted before performing further surgeries. The jugular vein was-cannulated for injection of ovalbumin antigen, which was given as a bolus (100 μg/kg) over 10 sec. The right carotid artery was cannulated and the cannula tip was slowly advanced into the left ventricle, as detected when diastolic pressure fell to near 0 mmHg. The ventricular cannula was connected to a TXD-310 transducer and heart function parameters were recorded using a Digi-Med Heart Performance Analyser (Micro-Med, Louisville, Ky.). The effects of anaphylaxis on heart function were analysed by comparing the changes in ventricular peak systolic pressure (VPSP), and in the rate of ventricular contraction during systole (dP/dt) and relaxation during distole (−dP/dt). Antigen was injected at 10 min. The anaphylactic response was followed for 30 min.
Very rapidly (within 1 min) after the intravenous injection of antigen into ovalbumin-sensitized rats, VPSP dropped and minimal ventricular pressures were measured at 5 min after initiation of the anaphylactic reaction.
To determine if anaphylaxis directly affected heart function, the percent changes in VPSP were plotted against percent changes in dP/dt and −dP/dt. […] By analysis of variance, the slopes of the regression lines of dP/dt and −dP/dt were not different from unity.

[2] = test system: LPS (Salmonella typhosa)-induced hypotension in sialadenectomized rats; test: endotoxin (LPS)-induced hypotension, sialadenectomized rats; type: in vivo, rat
Experimental: The animal model of endotoxic shock used involves intravenous injection of endotoxin (3.5 mg/kg of lipopolysaccharide (LPS) from Salmonella typhosa) into pentobarbital-anaesthetized Sprague-Dawley rats, to produce a fall in mean arterial blood pressure within 3 to 5 minutes. The endotoxin was injected slowly over 1 min. via the jugular vein, and mean arterial blood pressure in mm mercury (MABP) was monitored continuously for 60 min, with the average blood pressure being calculated at 15, 30, 45 and 60 min. Studies were performed on unoperated rats and rats with their submandibular glands removed (sialadenectomized).
The results shown in Table 1 are the averages of three different experiments using the protocol defined above. The data shown represent the average decrease in MABP (dec MABP) and the % Decrease in MABP over the 60 minutes following LPS administration. SGP-S (100μg/kg) and SGP-T (100 μg/kg) were administered 90 min. before LPS. […] Neither SGP-T nor SGP-S, when given prior to the LPS challenge, had appreciable effects on MABP.
The dose-response relationship of the inhibitory effect of SGP-T and SGP-S on endotoxin-induced hypotension was also examined and the results are shown in FIG. 1.

[3] = peptide 100 μg/kg 90 min before LPS 3.5 mg/kg iv

In the case of “NH2-Thr-Asp-Ile-Phe-Glu-Gly-Gly-COOH (H-TDIFEGG-OH) [SGP-T, submandibular gland peptide T, TDIFEGG]”, the “integrated (average) decrease in VPSP over the 30 min” value ([1]; 10 μg/kg) is reported as 16.7±8.3 mm Hg, the “integrated (average) decrease in VPSP over the 30 min” value ([1]; 100 μg/kg) is reported as 15.9±8.0 mm Hg and the “VPSP by the end of the experiment” value ([1]; 10 and 100 μg/kg, 30 min after antigen) is reported as “attained pre-antigen values”. For the same substance, the “initial anaphylactic reaction (initial blood pressure drop)” value ([1]; FIG. 12) was “does not prevent”, the sustained anaphylactic reaction ([1]; FIG. 12) was “does prevent” and the “drop in blood pressure elicited by the anaphylactic reaction” value ([1]; doses of 35 and 100 μg/kg) was “significantly reduced”. The “anaphylactic hypotension / decrease in VPSP provoked by antigen” value ([1]; injected 10 min prior to antigen (100 μg/kg)) was “protected the rats against anaphylactic hypotension; also recorded: reduced significantly”, the “protection against antigen elicited hypotension” value ([1]; lower (10 μg/kg) and higher (350 μg/kg) doses) was “Neither lower (10 μg/kg) nor higher doses (350 μg/kg) of SGP-T protected” and the prevention of shock ([2]; doses higher than 10 μg/kg) was “less effective”. For the same substance, the “LPS-provoked drop in blood pressure” value ([2]; doses of 1, 3.5 and 10 μg/kg) was “significantly prevented”, the “decrease in blood pressure induced by LPS, dose-response” value ([2]; intravenously 1.5 hours before LPS) was “dose-dependently inhibited” and the “% Dec = percent decrease in MABP relative to MABPbef” value [2, 3] was −36.3 ± 3.3%. The “MABPaft = average MABP for 60 mins after LPS injection” value [2, 3] was 77.2 ± 3.9 mm Hg and the “dec MABP = decrease in MABP after LPS relative to MABPbef” value [2, 3] was −46.1 ± 4.9 mm Hg.
